# Measured values: patent publication US20050203086A1, “Methods of treatment using an EP2 selective receptor agonist” (Pfizer Inc., priority 2004, published 2005)
# Target: T1, prostaglandin E2 type 2 (EP2) receptors (Homo sapiens, UniProt P43116)
# T1 construct: These full length receptors are used to prepare 293S cells expressing the EP1, EP2, EP3 and EP4 receptors; expressed in transfected cells; membranes
# Experiment: Assay for Binding to Prostaglandin E2 Receptors (3H-prostaglandin E2 displacement, membranes of transfected 293S cells)
# Details: concentration displacing 50% of specifically bound 3H-prostaglandin E2, 1 hour at 25° C.
# Protocol: Membrane Preparation: All operations are performed at […]. Transfected cells expressing prostaglandin E2 type 1 receptors (EP1), type 2 (EP2), type 3 (EP3) or type 4 (EP4) receptors are harvested and suspended to 2 million cells per ml in Buffer A [50 mM Tris-HCl (pH 7.4), 10 mM MgCl2, 1 mM EDTA, 1 mM Pefabloc peptide, (Boehringer Mannheim Corp., Indianapolis, Ind.), 10 uM Phosporamidon peptide, (Sigma, St. Louis, Mo.), 1 uM pepstatin A peptide, (Sigma, St. Louis, Mo.), 10 uM elastatinal peptide, (Sigma, St. Louis, Mo.), 100 uM antipain peptide, (Sigma, St. Louis, Mo.)]. The cells are lysed by sonification with a Branson Sonifier (Model #250, Branson Ultrasonics Corporation, Danbury, Conn.) in 2 fifteen second bursts. Unlysed cells and debris are removed by centrifugation, at 100×g for 10 min. Membranes are then harvested by centrifugation at 45,000×g for 30 minutes. […] Resuspended membranes are then stored frozen at −80° C. until use.
# Binding Assay: Frozen membranes prepared as above are thawed and diluted to 1 mg protein per ml in Buffer A above. […] The membranes with bound ^3H-prostaglandin E2 are trapped by the filter, while the buffer and unbound ^3H-prostaglandin E2 pass through the filter into waste. Each sample is then washed 3 times with 3 ml of [50 mM Tris-HCl (pH 7.4), 10 mM MgCl2, 1 mM EDTA]. The filters are then dried by heating in a microwave oven.
# Typically, PCR (polymerase chain reaction) primers corresponding to the 5′ and 3′ ends of the published full length receptor are made according to the well known methods disclosed above and are used in an RT-PCR reaction using the total RNA from human kidney (for EP1), human lung (for EP2), human lung (for EP3) or human lymphocytes (for EP4) as a source. PCR products are cloned by the TA overhang method into pCR2.1 (Invitrogen, Carlsbad, Calif.) and identity of the cloned receptor is confirmed by DNA sequencing.
# Stable cell lines expressing the receptor are established following selection of transfected cells with G418.
# T1 sequence (P43116 whole entry): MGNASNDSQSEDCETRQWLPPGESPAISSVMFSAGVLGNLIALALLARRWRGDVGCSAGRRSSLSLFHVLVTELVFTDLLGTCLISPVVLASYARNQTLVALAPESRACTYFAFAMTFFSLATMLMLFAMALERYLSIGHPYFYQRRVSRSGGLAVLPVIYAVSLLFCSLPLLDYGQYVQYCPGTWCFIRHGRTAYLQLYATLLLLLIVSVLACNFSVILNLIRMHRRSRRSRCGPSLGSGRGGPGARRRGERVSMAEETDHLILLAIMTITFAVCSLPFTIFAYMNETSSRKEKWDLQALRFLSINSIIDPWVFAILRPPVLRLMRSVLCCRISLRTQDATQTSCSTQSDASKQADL
row,IC50 [nM],SMILES
1,440,"O=C(O)c1ccc(CCCN(CCCc2cccc(Cl)c2)S(=O)(=O)c2cccc3nsnc23)s1 [Example 4b, 5-(3-((Benzo[1,2.5]thiadiazole-4-sulfonyl)-(3-(3-chloro-phenyl)-propyl)-amino)-propyl)-thiophene-2-carboxylic acid]"
2,175,"O=C(O)c1ccc(CCCN(CCCc2cccc(Cl)c2)S(=O)(=O)Cc2ccccc2)s1 [Example 4d, 5-(3-((3-(3-Chloro-phenyl)-propyl)-phenylmethanesulfonyl-amino)-propyl)-thiophene-2-carboxylic acid]"
3,410,"O=C(O)c1ccc(CCCN(CCCc2cccc(Cl)c2)S(=O)(=O)c2cccnc2)o1 [Example 4e, 5-(3-((3-(3-Chloro-phenyl)-propyl)-(pyridine-3-sulfonyl)-amino)-propyl)-furan-2-carboxylic acid]"
4,705,"O=C(O)c1ccc(CCCN(CCCc2cccc(Cl)c2)S(=O)(=O)c2ccc3ccccc3c2)s1 [Example 4f, 5-(3-((3-(3-Chloro-phenyl)-propyl)-(naphthalene-2-sulfonyl)-amino)-propyl)-thiophene-2-carboxylic acid]"
5,720,"O=C(O)c1ccc(CCCN(CCCc2cccc(Cl)c2)S(=O)(=O)c2cccc3ccccc23)s1 [Example 4g, 5-(3-((3-(3-Chloro-phenyl)-propyl)-(naphthalene-1-sulfonyl)-amino)-propyl)-thiophene-2-carboxylic acid]"
6,210,"CC(=O)Nc1nc(C)c(S(=O)(=O)N(CCCc2cccc(Cl)c2)CCCc2ccc(C(=O)O)s2)s1 [Example 4h, 5-(3-((2-Acetylamino-4-methyl-thiazole-5-sulfonyl)-(3-(3-chloro-phenyl)-propyl)-amino)-propyl)-thiophene-2-carboxylic acid]"
7,980,"O=C(O)c1ccc(CCCN(CCCc2cccc(Cl)c2)C(=O)c2cccnc2)s1 [Example 5, 5-(3-((3-(3-Chloro-phenyl)-propyl)-(pyridine-3-carbonyl)-amino)-propyl)-thiophene-2-carboxylic acid]"
8,355,"O=C(O)c1ccc(CCCN(CCCc2cccc(Cl)c2)C(=O)Cc2ccccn2)s1 [Example 5a, 5-(3-((3-(3-Chloro-phenyl)-propyl)-(pyridin-2-yl-acetyl)-amino)-propyl)-thiophene-2-carboxylic acid]"
9,640,"O=C(O)c1ccc(CCCN(CCCc2cccc(Cl)c2)C(=O)Cc2cccnc2)s1 [Example 5b, 5-(3-((3-(3-Chloro-phenyl)-propyl)-(Pyridin-3-yl-acetyl)-amino)-propyl)-thiophene-2-carboxylic acid]"
10,315,"O=C(O)c1ccc(CCCN(CCCc2cccc(Cl)c2)S(=O)(=O)c2ccccc2Cl)s1 [Example 6, 5-(3-((2-Chloro-benzenesulfonyl)-(3-(3-chloro-phenyl)-propyl)-amino)-propyl)-thiophene-2-carboxylic acid]"
11,325,"Cc1ccc(C)c(S(=O)(=O)N(CCCc2cccc(Cl)c2)CCCc2ccc(C(=O)O)s2)c1 [Example 6a, 5-(3-((3-(3-Chloro-phenyl)-propyl)-(2,5-dimethyl-benzenesulfonyl)-amino)-propyl)-thiophene-2 carboxylic acid]"
12,300,"O=C(O)c1ccc(CCCN(CCCc2cccc(Cl)c2)S(=O)(=O)CCCCNC(=O)c2ccccc2C(=O)O)s1 [Example 6c, 5-(3-((4-(2-Carboxy-benzoylamino)-butane-1-sulfonyl)-(3-(3-chloro-phenyl)-propyl)-amino)-propyl)-thiophene-2-carboxylic acid]"
13,170,"O=C(O)c1ccc(CCCN(CCCc2cccc(Cl)c2)S(=O)(=O)c2ccc(-n3ncc(=O)[nH]c3=O)cc2)s1 [Example 6d, 5-(3-((3-(3-Chloro-phenyl)-propyl)-(4-(3,5-dioxo-4,5-dihydro-3H-[1,2,4]triazin-2-yl)-benzenesulfonyl)-amino)-propyl)-thiophene-2-carboxylic acid]"
14,325,"COC(=O)c1ccccc1S(=O)(=O)N(CCCc1cccc(Cl)c1)CCCc1ccc(C(=O)O)s1 [Example 6e, 5-(3-((3-(3-Chloro-Phenyl)-propyl)-(2-methoxycarbonyl-benzenesulfonyl)-amino)-propyl)-thiophene-2-carboxylic acid]"
15,490,"O=C(O)c1ccc(CCCN(CCCc2cccc(Cl)c2)S(=O)(=O)c2ccc(Br)cc2)s1 [Example 6f, 5-(3-((4-Bromo-benzenesulfonyl)-(3-(3-chloro-phenyl)-propyl)-amino)-propyl)-thiophene-2-carboxylic acid]"
16,350,"CCC(C)(C)c1ccc(S(=O)(=O)N(CCCc2cccc(Cl)c2)CCCc2ccc(C(=O)O)s2)cc1 [Example 6g, 5-(3-((3-(3-Chloro-phenyl)-propyl)-(4-(1,1-dimethyl-propyl)-benzenesulfonyl)-amino)-Propyl)-thiophene-2-carboxylic acid]"
17,140,"Cc1noc(C)c1S(=O)(=O)N(CCCc1cccc(Cl)c1)CCCc1ccc(C(=O)O)s1 [Example 6h, 5-(3-((3-(3-Chloro-phenyl)-propyl)-(3.5-dimethyl-isoxazole-4-sulfonyl)-amino)-propyl)-thiophene-2-carboxylic acid]"
18,270,"COc1ccc(OC)c(S(=O)(=O)N(CCCc2cccc(Cl)c2)CCCc2ccc(C(=O)O)s2)c1 [Example 6i, 5-(3-((3-(3-Chloro-phenyl)-propyl)-(2,5-dimethoxy-benzenesulfonyl)-amino)-propyl)-thiophene-2-carboxylic acid]"
19,375,"O=C(O)c1ccc(CCCN(CCCc2cccc(Cl)c2)S(=O)(=O)c2ccccc2F)s1 [Example 6j, 5-(3-((3-(3-Chloro-phenyl)-propyl)-(2-fluoro-benzenesulfonyl)-amino)-propyl)-thiophene-2-carboxylic acid]"
20,400,"CC(C)NC(=O)N(CCCc1cccc(Cl)c1)CCCc1ccc(C(=O)O)s1 [Example 7a, 5-(3-(1-(3-(3-Chloro-phenyl)-propyl)-3-isopropyl-ureido)-propyl)-thiophene-2-carboxylic acid]"
21,140,"O=C(O)c1ccc(CCCN(CCCc2cccc(Cl)c2)C(=O)Nc2ccccc2)s1 [Example 7b, 5-(3-(1-(3-(3-Chloro-phenyl)-propyl)-3-phenyl-ureido)-propyl)-thiophene-2-carboxylic acid]"
22,260,"O=C(O)c1ccc(CCCN(CCCc2cccc(Cl)c2)C(=O)Nc2ccc(Cl)c(Cl)c2)s1 [Example 7c, 5-(3-(1-(3-(3-Chloro-phenyl)-propyl)-3-(3,4-dichloro-phenyl)-ureido)-propyl)-thiophene-2-carboxylic acid]"
23,52,"CCCNC(=O)N(CCCc1cccc(Cl)c1)CCCc1ccc(C(=O)O)s1 [Example 7d, 5-(3-(1-(3-(3-Chloro-Phenyl)-propyl)-3-propyl-ureido)-propyl)-thiophene-2-carboxylic acid]"
24,344,"O=C(O)c1ccc(CCCN(CCCc2cccc(Cl)c2)C(=O)Nc2cccc(Cl)c2Cl)s1 [Example 7f, 5-(3-(1-(3-(3-Chloro-phenyl)-propyl)-3-(2,3-dichloro-phenyl)-ureido)-propyl) thiophene-2-carboxylic acid]"
25,412,"O=C(O)c1ccc(CCCN(CCCc2cccc(Cl)c2)C(=O)Nc2cc(Cl)cc(Cl)c2)s1 [Example 7g, 5-(3-(1-(3-(3-Chloro-phenyl)-propyl)-3-(3,5-dichloro-phenyl)-ureido)-propyl)-thiophene-2-carboxylic acid]"
26,172,"O=C(O)c1ccc(CCCN(CCCc2cccc(Cl)c2)C(=O)Nc2c(F)cccc2F)s1 [Example 7h, 5-(3-(1-(3-(3-Chloro-phenyl)-propyl)-3-(2,6-difluoro-phenyl)-ureido)-propyl)-thiophene-2-carboxylic acid]"
27,71,"O=C(O)c1ccc(CCCN(CCCc2cccc(Cl)c2)C(=O)N2CCCC2)s1 [Example 8, 5-(3-((3-(3-Chloro-phenyl)-propyl)-(Pyrrolidine-1-carbonyl)-amino)-propyl)-thiophene-2-carboxylic acid]"
28,180,"O=C(O)c1ccc(CCCN(CCCc2cccc(Cl)c2)C(=O)N2CCOCC2)s1 [Example 8a, 5-(3-((3-(3-Chloro-phenyl)-Propyl)-(morpholine-4-carbonyl)-amino)-propyl)-thiophene-2-carboxylic acid]"
29,266,"CC(C)OC(=O)N(CCCc1cccc(Cl)c1)CCCc1ccc(C(=O)O)s1 [Example 8b, 5-(3-((3-(3-Chloro-phenyl)-propyl)-isopropoxycarbonyl-amino)-propyl)-thiophene-2-carboxylic acid]"
30,84.5,"CCCCc1ccc(CN(Cc2cccc(CC(=O)O)c2)S(=O)(=O)c2ccccc2)cc1 [Example 9a, (3-((Benzenesulfonyl-(4-butyl-benzyl)-amino)-methyl)-phenyl)-acetic acid]"
